Assay results published in US20230218539A1, “TRANSDERMAL THERAPEUTIC SYSTEM COMPRISING THE INGREDIENT ROTIGOTINE AND AT LEAST ONE NON-AMINE-RESISTANT SILICONE ADHESIVE” (Luye Pharma Switzerland AG, priority 2020, published 2023).

Legend:
[1] = as described in WO 2009/068520; cited from earlier work
[2] = Solubility of rotigotine in matrix components; type: physicochemical

SMILES: CCCN(CCc1cccs1)[C@H]1CCc2c(O)cccc2C1 [polymorphic form II]
- Thermodynamic stability of the polymorphic form [1]: thermodynamically more stable than the polymorphic form I

SMILES: CCCN(CCc1cccs1)[C@H]1CCc2c(O)cccc2C1 [Rotigotine]
- Solubility in a crystallization inhibitor such as polyvinylpyrrolidone [2]: good soluble
- Solubility in silicone adhesives [2]: very poorly soluble
